Data on one molecule can be found in US10294202B2, “Pyrrolidinones as herbicides” (FMC Corporation, priority 2013, dated 2019).

The subject of one assay is chickweed. In words: Test C postemergence herbicide test. The assay is classed as in vivo, Stellaria media. Put shortly:
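Response is scored visually on a 0–100 scale (100 = complete control) relative to untreated controls, 13 to 15 days after treatment. Plants were sprayed postemergence at the 1- to 4-leaf stage (2 to 18 cm tall) and kept in a greenhouse.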

The subject of a further assay is sedge, umbrella. In words: Test B flooded paddy test. The assay is classed as in vivo, Cyperus difformis. The note with it: 1000 g ai/ha, Flood; scale of 0 to 100 where 0 is no effect and 100 is complete control. The procedure, abridged: (§1)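 Scoring: visual, compared with untreated controls, 0 = no effect through 100 = complete control, taken 13 to 15 days after treatment in the greenhouse. Compounds had been added to paddy water over soil flooded 3 cm deep at the plants' 2-leaf stage.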

A further assay concerns giant foxtail. As to the kind of experiment: Test A pre-/postemergence herbicide test. Type of assay: in vivo, Setaria faberii. The procedure, abridged: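 Directed soil spray to seeded pots (preemergence) or spray onto one- to two-leaf seedlings 2–10 cm tall (postemergence); loam/sand substrate throughout. Evaluated visually after about 10 days against untreated plants, 0 = no effect, 100 = complete control.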

The test system of assay [1] is barnyardgrass. As to the kind of experiment: Test B flooded paddy test. The note with it: 1000 g ai/ha, Flood; scale of 0 to 100 where 0 is no effect and 100 is complete control. The assay is classed as in vivo, Echinochloa crus-galli. The procedure, abridged: as §1
The subject of assay [2] is barnyardgrass. As to the kind of experiment: Test C flooded paddy test. Type of assay: in vivo, Echinochloa crus-galli. Conditions: Flood. The procedure, abridged:
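Ratings reflect visual comparison with controls on a 0–100 scale, where 100 is complete control. Compound is dosed into standing paddy water 3 cm deep over 2-leaf-stage plants, kept in the greenhouse 13 to 15 days.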

Another assay has as its system waterhemp. In words: Test C pre-/postemergence herbicide test. Type of assay: in vivo, Amaranthus rudis. The procedure, abridged:
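Two application timings ran in parallel with identically formulated test chemicals (non-phytotoxic solvent, surfactant included): spray on seeded loam–sand soil, and spray on emerged plants 2 to 18 cm high. Evaluation at 13 to 15 days compared each species with controls, rated from 0 up to 100.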

Consider `O=C1NCC(c2ccc(F)c(F)c2)C1C(=O)Nc1ccc(F)c(F)c1F` (stereo not drawn) [Compound 346], for which the “Plant response rating, Chickweed” value in the assay on chickweed (31 g ai/ha, scale 0 to 100 (0 no effect, 100 complete control)) worked out at 40; with chickweed (62 g ai/ha, scale 0 (no effect) to 100 (complete control)), 65; in the assay with chickweed (125 g ai/ha, scale 0 to 100 (0 no effect, 100 complete control)) it was 40; in the assay with chickweed (250 g ai/ha, scale 0 to 100 (0 no effect, 100 complete control)) it was 85. The “Plant response rating, Sedge, Umbrella” value in the assay with sedge, umbrella is 0. The “Plant response rating, Foxtail, Giant” value in the assay on giant foxtail (Postemergence, 125 g ai/ha, visual rating on 0 to 100 scale (0 no effect, 100 complete control), approx. 10 days) amounted to 80; with giant foxtail (Postemergence, 500 g ai/ha, 0 to 100 scale (0 no effect, 100 complete control)) it was 90; in the assay with giant foxtail (Preemergence, 125 g ai/ha, 0 to 100 scale where 0 is no effect and 100 is complete control) it was 90. For the same molecule, the “Foxtail, Giant plant response rating” value with giant foxtail (Preemergence, 500 g ai/ha, visual rating on 0 to 100 scale (0 no effect, 100 complete control)) is reported as 90. Also, the “Plant response rating, Barnyardgrass” value is reported as 85 in the assay on barnyardgrass [1]; 30 in the assay on barnyardgrass [2] (125 g ai/ha, scale of 0 to 100 where 0 is no effect and 100 is complete control, 13 to 15 days); 45 in the assay on barnyardgrass [2] (250 g ai/ha, scale of 0 to 100 where 0 is no effect and 100 is complete control, 13 to 15 days); 65 in the assay with barnyardgrass [2] (500 g ai/ha, scale 0 to 100); 70 in the assay with barnyardgrass [2] (1000 g ai/ha, scale 0 to 100). Further, the “Plant response rating, Waterhemp” value in the assay on waterhemp (Postemergence, 31 g ai/ha, scale 0 to 100 (0 no effect, 100 complete control)) is 0; in the assay with waterhemp (Postemergence, 62 g ai/ha, scale 0 (no effect) to 100 (complete control)) it was 0; in the assay with waterhemp (Postemergence, 125 g ai/ha, scale 0 to 100 (0 no effect, 100 complete control)) it was 15; in the assay with waterhemp (Postemergence, 250 g ai/ha, scale 0 to 100 (0 no effect, 100 complete control)) it was 40; in the assay on waterhemp (Preemergence, 125 g ai/ha, scale 0 to 100), 10; in the assay on waterhemp (Preemergence, 31 g ai/ha, scale 0 to 100), 75. Besides, the “Waterhemp plant response rating” value in the assay on waterhemp (Preemergence, 62 g ai/ha, scale 0 to 100 (0 no effect, 100 complete control)) was determined as 25.
